Test [1] has as its target T1, full-length chicken c-Src (Gallus gallus, UniProt P00523).
T1 construct: assayed against full-length chicken c-Src
Description: Z'-LYTE kinase assay (Tyr 02 substrate peptide), full-length c-Src. The test is classed as biochemical. On the procedure: For the FRET-based endpoint assay, kinase assays were performed using Invitrogen's Z′-LYTE kinase assay using the Tyr 02 substrate peptide (based upon the optimal Abl substrate peptide […]) according to the manufacturer's instructions. Assays were performed at near KM ATP concentrations for full-length c-Src and full-length c-Src T338I-50 μM and 7 μM, respectively.
Derivatives of MC4 were synthesized by Fmoc solid-phase peptide synthesis and assayed against full-length chicken c-Src using Invitrogen's Z′-LYTE kinase assay. […] Holding the amino acids at the A and C positions constant, variants of MC4 containing phenylalanine, cyclohexylalanine, pentafluorophenylalanine, and N-methyl-phenylalanine at the B position in place of furylalanine were synthesized and assayed.

For another test, the target named is T2, Lck (Mus musculus, UniProt P06240).
T2 construct: murine Lck (residues 227-509); made in house
T2 sequence (P06240 227-509): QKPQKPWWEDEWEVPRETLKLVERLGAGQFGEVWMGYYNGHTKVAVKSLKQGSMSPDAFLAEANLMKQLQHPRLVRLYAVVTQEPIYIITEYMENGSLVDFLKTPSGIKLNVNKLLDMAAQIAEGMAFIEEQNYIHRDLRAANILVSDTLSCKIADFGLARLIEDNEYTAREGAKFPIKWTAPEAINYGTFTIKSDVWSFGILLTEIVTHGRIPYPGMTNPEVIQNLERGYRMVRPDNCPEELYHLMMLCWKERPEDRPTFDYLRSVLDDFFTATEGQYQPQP
Description: Continuous spectrophotometric kinase activity assay. The test is classed as biochemical, murine. From the text:
(§1) Kinase domain constructs of human c-Abl (residues 229-512), chicken c-Src (residues 251-533 and residues 83-533), murine Lck (residues 227-509), and human Hck (residues 166-445) were expressed as previously described (Seeliger, Young et al. 2005; Seeliger, Nagar et al. 2007; the entire contents of each of which are incorporated by reference herein). Mutations were introduced into chicken c-Src (residues 251-533) (T338I, C277Q, L297M) by site-directed mutagenesis and verified by DNA sequencing.
(§2) In vitro kinase inhibition assays were performed using either a continuous spectrophotometric assay or a FRET-based endpoint assay.
(§3) The original characterization of kinase inhibition was performed with a commercial kinase assay that relies on a fluorescently labeled peptide kinase substrate (Z-LYTE, Invitrogen). For further characterization, a continuous spectrophotometric kinase activity assay was employed that is easily adapted to different substrate peptides as well as a wider range of peptide and ATP concentrations.

Test [2] concerns the target T3, Src kinase domain (chicken c-Src residues 251-533) (Gallus gallus, UniProt P00523).
T3 construct: chicken c-Src (residues 251-533 and residues 83-533); made in house
Described as above. The test is classed as biochemical. To be noted: Src kinase domain.
Text: as §1, §2, §3

In another test the target is T4, Abl (Homo sapiens, UniProt P00519).
T4 construct: human c-Abl (residues 229-512); made in house
T4 sequence (P00519 229-512): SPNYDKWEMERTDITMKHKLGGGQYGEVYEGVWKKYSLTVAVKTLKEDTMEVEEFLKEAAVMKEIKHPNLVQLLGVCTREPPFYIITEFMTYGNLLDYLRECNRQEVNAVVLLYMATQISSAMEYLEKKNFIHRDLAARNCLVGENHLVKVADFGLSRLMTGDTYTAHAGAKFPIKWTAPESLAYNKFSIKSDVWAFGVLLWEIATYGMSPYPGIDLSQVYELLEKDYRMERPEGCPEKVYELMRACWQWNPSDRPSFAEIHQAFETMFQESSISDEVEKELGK
The test is described as above. The test is classed as biochemical.
Text: as §1, §2, §3

For a further test, the target named is HCK (Homo sapiens, UniProt P08631). The test is described as above. The test is classed as biochemical. Set-up: Kinase domain constructs of human c-Abl (residues 229-512), chicken c-Src (residues 251-533 and residues 83-533), murine Lck (residues 227-509), and human Hck (residues 166-445); made in house. To be noted: 300 μM Src optimal peptide.
HCK, sequence (P08631 262-515 limits assumed): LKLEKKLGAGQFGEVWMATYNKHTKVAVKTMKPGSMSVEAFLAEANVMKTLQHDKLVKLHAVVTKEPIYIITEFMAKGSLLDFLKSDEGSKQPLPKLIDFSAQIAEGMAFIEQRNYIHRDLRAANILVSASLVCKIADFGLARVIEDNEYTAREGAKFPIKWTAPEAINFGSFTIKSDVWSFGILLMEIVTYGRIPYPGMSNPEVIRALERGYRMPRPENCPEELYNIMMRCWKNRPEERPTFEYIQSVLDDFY
Text: as §1, §2, §3

In a further test the target is Src kinase (Homo sapiens, UniProt P12931). Kind of test: Z'-LYTE kinase assay (Invitrogen), Src. The conditions noted are these: for Src kinase inhibition (in words): non-DNA-linked compound; for IC50: Z'-LYTE, ATP near KM. The format is biochemical. Set-up: full-length kinase in the Z-LYTE assay vs. kinase domain in the current study; purchased Millipore. On the procedure: Nine macrocycles enriched in the Src selection (FIG. 5) and synthesized as described above were assayed in vitro for the ability to inhibit Src kinase activity. Kinase activity was assayed in the presence of varying concentrations of macrocycle using the FRET-based Z′-LYTE assay (Invitrogen).
Src kinase, sequence (P12931 whole entry, the tested form may be a part): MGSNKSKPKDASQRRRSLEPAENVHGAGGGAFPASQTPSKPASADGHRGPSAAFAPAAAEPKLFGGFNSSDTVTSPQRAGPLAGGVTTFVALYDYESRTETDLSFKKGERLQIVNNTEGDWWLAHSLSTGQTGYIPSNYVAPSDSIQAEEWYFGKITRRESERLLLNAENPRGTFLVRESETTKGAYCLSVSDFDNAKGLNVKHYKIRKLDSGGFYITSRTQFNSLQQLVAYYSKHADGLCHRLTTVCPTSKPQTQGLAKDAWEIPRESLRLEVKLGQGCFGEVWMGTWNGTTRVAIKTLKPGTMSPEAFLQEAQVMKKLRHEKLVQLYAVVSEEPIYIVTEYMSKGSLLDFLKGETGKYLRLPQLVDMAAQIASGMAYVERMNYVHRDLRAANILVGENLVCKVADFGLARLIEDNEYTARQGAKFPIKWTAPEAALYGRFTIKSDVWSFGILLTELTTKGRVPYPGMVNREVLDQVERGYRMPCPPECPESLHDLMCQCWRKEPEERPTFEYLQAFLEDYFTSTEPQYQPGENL
(§4) Src IC50 determinations and single-point inhibition measurements were performed using Invitrogen's Z′-LYTE Tyr 02 assay kit according to the manufacturer's protocols. All kinase assays were performed at ATP concentrations near KM,ATP values, except where noted otherwise. Active human Src kinase was obtained from Millipore. For kinome profiling and IC50 determinations against non-Src kinases, compounds were submitted to Invitrogen's SelectScreen Kinase Profiling Service.

A further test has as its target Pim1 (Homo sapiens, UniProt P11309). Description: Z'-LYTE kinase assay (Invitrogen SelectScreen). The format is biochemical. To be noted: Pim1.
Text: (§5) Macrocycles A10-B1-C11-D5 and A10-B8-C11-D5 were enriched 2- to 6-fold upon selection for binding Akt3, MAPKAPK2, Pim1, and VEGFR2 (FIG. 6). These two macrocycles are structurally similar, sharing nitrophenylalanine (A10) and cyclohexylstatine (C11) building blocks as well as the same lysine scaffold (D5), and differ only at the B building block with either furylalanine (B1) or cyclohexylalanine (B8) (FIG. 6). For assay purposes, the macrocycles were synthesized with C-terminal PEG-diamine linkers to aid solubility, and then tested for the ability to inhibit Akt3, MAPKAPK2, Pim1 and VEGFR2.
as §4

The target of test [3] is p38α-MAPKAPK2 kinase cascade (P38α-MK2) (Homo sapiens, UniProt P49137+Q16539). Kind of test: Z'-LYTE kinase cascade assay (Invitrogen SelectScreen). The format is biochemical.
p38α-MAPKAPK2 kinase cascade (P38α-MK2), sequence (Q16539 whole entry): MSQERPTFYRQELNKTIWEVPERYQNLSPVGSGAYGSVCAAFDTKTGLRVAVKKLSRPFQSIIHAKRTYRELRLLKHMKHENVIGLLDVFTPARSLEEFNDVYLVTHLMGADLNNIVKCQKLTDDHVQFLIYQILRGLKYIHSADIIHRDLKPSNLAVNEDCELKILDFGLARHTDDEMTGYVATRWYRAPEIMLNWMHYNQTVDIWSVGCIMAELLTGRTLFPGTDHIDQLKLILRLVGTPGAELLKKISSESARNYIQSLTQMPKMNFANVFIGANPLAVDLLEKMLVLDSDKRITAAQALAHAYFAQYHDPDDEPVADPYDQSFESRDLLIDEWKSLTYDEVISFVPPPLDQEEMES
p38α-MAPKAPK2 kinase cascade (P38α-MK2), sequence (P49137 whole entry): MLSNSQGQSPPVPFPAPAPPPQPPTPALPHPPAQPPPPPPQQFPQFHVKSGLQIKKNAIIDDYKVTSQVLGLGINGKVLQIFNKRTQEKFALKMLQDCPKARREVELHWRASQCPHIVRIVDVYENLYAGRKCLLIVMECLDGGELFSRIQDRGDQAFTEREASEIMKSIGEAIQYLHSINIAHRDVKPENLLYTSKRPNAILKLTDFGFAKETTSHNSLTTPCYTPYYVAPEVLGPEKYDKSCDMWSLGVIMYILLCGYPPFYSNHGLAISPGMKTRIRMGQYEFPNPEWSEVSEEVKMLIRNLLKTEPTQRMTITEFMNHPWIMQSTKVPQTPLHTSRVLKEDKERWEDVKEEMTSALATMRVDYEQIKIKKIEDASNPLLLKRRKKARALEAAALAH
Text: as §5, §4

Setting [4] is: 5 μM ATP, 100 μM Src optimal peptide.
Setting [5] is: 5 μM ATP, 300 μM Src optimal peptide.
Where [6] appears, read: 250 μM ATP, 300 μM Src optimal peptide.

*1 amine or outer side, *2 acyl side, *3 side chain or, on linkers, in order; H or OH if unused. Where a SMILES comes first, the peptide text is derived from it. Bridges are numbered along the chain shown (N, C = ends). [ ]: non-standard residue; d: D form. The star is where a group is joined. Ala(E-styryl) = N[C@@H](C/C=C/c1ccccc1)C(=O)O; dBpa = N[C@H](Cc1ccc(C(=O)c2ccccc2)cc1)C(=O)O; Maleoyl = O=C(/C=C\C(=O)[*:2])[*:1]; NH(CH2CH2O)2CH2CH2NH2 = NCCOCCOCCN*; Cha = N[C@@H](CC1CCCCC1)C(=O)O; Dab = NCC[C@H](N)C(=O)O; Dap = NC[C@H](N)C(=O)O

Pim1, sequence (P11309 whole entry): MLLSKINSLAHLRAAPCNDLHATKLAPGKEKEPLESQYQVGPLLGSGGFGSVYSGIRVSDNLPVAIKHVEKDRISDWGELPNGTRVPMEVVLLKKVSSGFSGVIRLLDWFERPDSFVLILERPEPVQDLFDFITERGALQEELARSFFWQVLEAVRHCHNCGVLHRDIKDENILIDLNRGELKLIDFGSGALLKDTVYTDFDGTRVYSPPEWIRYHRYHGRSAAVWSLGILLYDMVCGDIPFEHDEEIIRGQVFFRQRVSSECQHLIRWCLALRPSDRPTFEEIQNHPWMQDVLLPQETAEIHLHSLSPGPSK

What is called IC50 is the concentration needed to halve the response being measured. The low end stands for greater potency in that assay, the high end for weaker potency in that assay. In the case of `NC(=O)[C@@H]1CCCNC(=O)[C@H](Cc2ccc([N+](=O)[O-])cc2)NC(=O)[C@H](Cc2ccccc2)NC(=O)[C@H](CC2CC2)NC(=O)/C=C/C(=O)N1` [MC4.1], in test [1], the “increase in Src inhibition potency relative to parent macrocycle” value amounted to 3 fold. Moreover, the IC50 in test [1] (full-length chicken c-Src, ATP near KM (50 μM)) turned out to be 0.08 µM; on Lck (setting [4]), 5.2 µM; against Lck (setting [5]), 5.5 µM; against Lck (setting [6]) it was 10 µM; in test [2] (setting [4]) it was 0.6 µM; in test [2] (setting [5]) it was 0.8 µM. For the same compound, the IC50 was 1.8 µM in test [2] (setting [6]); more than 100 µM on Abl (setting [4]); more than 100 µM against Abl (setting [5]); more than 100 µM against Abl (setting [6]); 6.3 µM against HCK (5 μM ATP); 11 µM against HCK (250 μM ATP).
Consider `CS(=O)(=O)CC[C@@H]1NC(=O)[C@H](Cc2ccco2)NC(=O)[C@H](CC2CC2)NC(=O)C=CC(=O)N[C@H](C(N)=O)CCNC1=O` [Macrocycle A9-B1-C5-D7], for which, at Src kinase, the “Src kinase inhibition (in words)” value was “did not inhibit Src”.
Turning to `NC(=O)[C@@H]1CCCNC(=O)[C@H](Cc2ccc([N+](=O)[O-])cc2)NC(=O)[C@H](Cc2ccco2)NC(=O)[C@H](CC2CC2)NC(=O)C=CC(=O)N1` [Macrocycle A10-B1-C5-D6], the “difference in potency between cis and trans stereoisomers (Src)” value at Src kinase is approximately 10 fold.
With `NC(=O)[C@@H]1CCNC(=O)[C@H](Cc2ccc([N+](=O)[O-])cc2)NC(=O)[C@H](Cc2ccco2)NC(=O)[C@H](CC2CC2)NC(=O)/C=C\C(=O)N1` [cis-A10-B1-C5-D7], the midpoint of inhibition against Src kinase, the IC50, lay at 8.9 µM.
As to `C=CC[C@@H]1NC(=O)/C=C\C(=O)N[C@H](C(N)=O)CCNC(=O)[C@H](CCCNC(=O)c2cnccn2)NC(=O)[C@H](Cc2ccco2)NC1=O` [cis-A11-B1-C3-D7], the IC50 at Src kinase was determined as 10 µM.
Still for that read-out and setting: the same measure for `NC(=O)[C@@H]1CCCCNC(=O)[C@H](CCCNC(=O)c2cnccn2)NC(=O)[C@H](Cc2ccco2)NC(=O)[C@H](CC2CC2)NC(=O)/C=C\C(=O)N1` [cis-A11-B1-C5-D5]: 85 µM.
As for `NC(=O)[C@@H]1CCNC(=O)[C@H](CCCNC(=O)c2cnccn2)NC(=O)[C@H](Cc2ccco2)NC(=O)[C@H](C/C=C/c2ccccc2)NC(=O)/C=C\C(=O)N1` [cis-A11-B1-C10-D7], half-maximal inhibition against Src kinase (IC50) required 7 µM.
Same read-out and setting: the same measure for `NC(=O)[C@@H]1CCNC(=O)[C@H](CCCNC(=O)c2cnccn2)NC(=O)[C@H](CC2CCCCC2)NC(=O)[C@H](CC2CC2)NC(=O)/C=C\C(=O)N1` [cis-A11-B8-C5-D7]: 36 µM.
With `NCCOCCOCCNC(=O)[C@@H]1CCNC(=O)/C=C\C(=O)N[C@@H](C/C=C/c2ccccc2)C(=O)N[C@@H](CC2CCCCC2)C(=O)N[C@H](Cc2ccc(C(=O)c3ccccc3)cc2)C(=O)N1` [cis-A12-B8-C10-D3] ([Ala(E-styryl)][Cha][dBpa][Dab]-{NH(CH2CH2O)2CH2CH2NH2}; linker N-4 via Maleoyl), the IC50 on Pim1 is 25 µM; in test [3], 12 µM.
The corresponding values for `NCCOCCOCCNC(=O)[C@@H]1CNC(=O)/C=C\C(=O)N[C@@H](C/C=C/c2ccccc2)C(=O)N[C@@H](CC2CCCCC2)C(=O)N[C@H](Cc2ccc(C(=O)c3ccccc3)cc2)C(=O)N1` [cis-A12-B8-C10-D4] ([Ala(E-styryl)][Cha][dBpa][Dap]-{NH(CH2CH2O)2CH2CH2NH2}; linker N-4 via Maleoyl) are 100 µM and 20 µM.
`CS(=O)(=O)CC[C@@H]1NC(=O)[C@H](Cc2ccco2)NC(=O)[C@H](CC2CC2)NC(=O)/C=C/C(=O)N[C@H](C(N)=O)CCNC1=O` [trans-A9-B1-C5-D7] displayed an IC50 at Src kinase of more than 100 µM.
The same measure, in the same setting: next, `NC(=O)[C@@H]1CCNC(=O)[C@H](Cc2ccc([N+](=O)[O-])cc2)NC(=O)[C@H](Cc2ccco2)NC(=O)[C@H](CC2CC2)NC(=O)/C=C/C(=O)N1` [trans-A10-B1-C5-D7]: 1.5 µM; `C=CC[C@@H]1NC(=O)/C=C/C(=O)N[C@H](C(N)=O)CCNC(=O)[C@H](CCCNC(=O)c2cnccn2)NC(=O)[C@H](Cc2ccco2)NC1=O` [trans-A11-B1-C3-D7]: 48 µM.
`NC(=O)[C@@H]1CCCCNC(=O)[C@H](CCCNC(=O)c2cnccn2)NC(=O)[C@H](Cc2ccco2)NC(=O)[C@H](CC2CC2)NC(=O)/C=C/C(=O)N1` [trans-A11-B1-C5-D5] returned an IC50 against Src kinase of more than 100 µM.
On the same count and under the same terms, the same measure for `NC(=O)[C@@H]1CCNC(=O)[C@H](CCCNC(=O)c2cnccn2)NC(=O)[C@H](Cc2ccco2)NC(=O)[C@H](CC2CC2)NC(=O)/C=C/C(=O)N1` [trans-A11-B1-C5-D7]: 12 µM; for `NC(=O)[C@@H]1CCNC(=O)[C@H](CCCNC(=O)c2cnccn2)NC(=O)[C@H](Cc2ccco2)NC(=O)[C@H](C/C=C/c2ccccc2)NC(=O)/C=C/C(=O)N1` [trans-A11-B1-C10-D7]: 21 µM.
On the same count and under the same terms, next, `NC(=O)[C@@H]1CCNC(=O)[C@H](CCCNC(=O)c2cnccn2)NC(=O)[C@H](CC2CCCCC2)NC(=O)[C@H](CC2CC2)NC(=O)/C=C/C(=O)N1` [trans-A11-B8-C5-D7]: more than 100 µM; `NC(=O)[C@@H]1CCNC(=O)[C@H](CCCNC(=O)c2cnccn2)NC(=O)[C@H](CC2CCCCC2)NC(=O)[C@H](C/C=C/c2ccccc2)NC(=O)/C=C/C(=O)N1` [trans-A11-B8-C10-D7]: more than 100 µM.
Regarding `NC(=O)[C@@H]1CCCNC(=O)[C@H](Cc2ccccc2)NC(=O)[C@H](Cc2ccco2)NC(=O)[C@H](CC2CC2)NC(=O)/C=C/C(=O)N1` [trans-Phe-B1-C5-D6], the “Src kinase inhibition (in words)” value on Src kinase is recorded as “abolished Src inhibition”.
